The subject of this experiment is subcutaneous transplanted tumors (CT26, LL/2, A375, MNK-45, SK-OV-3). Kind of experiment: Inhibition of growth of subcutaneous transplanted tumors in tumor-bearing mouse model. The conditions noted are these: 10 mg/kg. Format: in vivo. An excerpt: Embodiment 4: Test of Anti-Tumor Effect (i.e., The Inhibition Effect on the Growth of Subcutaneous Transplanted Tumors in Animals) of the Anti-Tumor Compound Drug with a Tumor-Bearing Mouse Model
BALB/c ordinary mice and C57/BL6 ordinary mice, male, 18-20 g in weight, 7-8 weeks old, SPF grade, purchased from Shanghai SLAC Laboratory Animal Co., Ltd. [Laboratory Animal Quality Certificate Number: SCXK (Shanghai) 2007-0005].
Mice are given intravenous injections, and one dose group is set: cGAMP, 10 mg/kg; compound anti-tumor drug, 10 mg/kg
Positive control: cGAMP, 10 mg/kg in dose
Administration route: administration by intraperitoneal injection
Administration volume: 100 μl/animal
Number of times of administration: continuous administration for 21 days, once every day
Number of animals in each group: 10
Mouse colorectal cancer cell line CT26, mouse Lewis lung cancer cell line LL/2, human ovarian cancer cell line SK-OV-3, human melanoma cell line A375, and human gastric cancer cell line MNK-45, which are all purchased from the Cell Bank of the Chinese Academy of Sciences.
The administration is continued for 21 days. 21 days later, the mice are killed and the tumors are weighed. Tumor inhibition rate=[1−mean tumor weight of experimental group/mean tumor weight of group A)]×100%.
Data is expressed with x±s, and processed with SPSS10.0 software. […]

`Nc1nc2c(ncn2[C@@H]2O[C@@H]3COP(=O)(O)O[C@H]4[C@@H](O)[C@H](n5cnc6c(N)ncnc65)O[C@@H]4COP(=O)(O)O[C@@H]2[C@@H]3O)c(=O)[nH]1` [cGAMP, Cyclic [G(2′,5′)pA(3′,5′)p]]: the growth of tumors result (once every day for 21 days, subcutaneous transplanted tumor models in mice) is given as “obviously inhibit the growth of tumors”. In addition, the “weights of tumors vs negative control group” value (after administration for 21 days, P<0.05, P<0.01) is “significantly lower than those of the negative control group”.

Values taken from patent publication US20210023115A1, “COMPOSITION OF ANTI-TUMOR COMPOUND DRUG AND APPLICATION THEREOF IN FIGHTING TUMORS” (HANGZHOU XINGAO BIOTECHNOLOGY CO. LTD, priority 2018, published 2021).
